# Source: patent US7795290B2 (Genentech, Inc., priority 2004, dated 2010)
# Target: T1, AKT1 (Homo sapiens, UniProt P31749)
# T1 construct: purchased Upstate 14-276
# Assay: HTS ATP-utilizing enzyme assay, off-chip mobility-shift (Caliper HTS 250)
# Format: biochemical
# Conditions: kinase named = inhibitory activity/selectivity; test compound 10 μM; active = greater than three-sigma from mean
# Outline: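 AKT1 activity was measured by off-chip mobility shift (Caliper HTS 250) as the ratio of peptide substrate to phosphorylated product. Test compound was at 10 μM, with 2.5 h incubation at 20–22° C. EDTA wells served as 100% control and DMSO wells as 0%. Hits were called at three-sigma limits.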
# T1 sequence (P31749 whole entry): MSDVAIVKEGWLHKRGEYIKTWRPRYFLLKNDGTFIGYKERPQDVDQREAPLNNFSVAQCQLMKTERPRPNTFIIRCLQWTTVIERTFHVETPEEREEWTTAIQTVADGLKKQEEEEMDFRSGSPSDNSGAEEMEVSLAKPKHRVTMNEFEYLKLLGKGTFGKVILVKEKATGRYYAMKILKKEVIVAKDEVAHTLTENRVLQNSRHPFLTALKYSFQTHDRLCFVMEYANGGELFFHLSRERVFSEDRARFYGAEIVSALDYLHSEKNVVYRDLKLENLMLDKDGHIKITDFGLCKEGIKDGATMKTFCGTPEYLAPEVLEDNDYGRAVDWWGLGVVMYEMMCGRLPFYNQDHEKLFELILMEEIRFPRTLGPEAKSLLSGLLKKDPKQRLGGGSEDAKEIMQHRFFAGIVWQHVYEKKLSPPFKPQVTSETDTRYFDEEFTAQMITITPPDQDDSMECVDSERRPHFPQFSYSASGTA
row,Activity,SMILES
1,AKT1,O=C(c1cccs1)N(CCCN1CCOCC1)c1nc(-c2ccc3ccccc3c2)cs1 [N-(3-morpholinopropyl)-N-(4-(naphthalen-2-yl)thiazol-2-yl)thiophene-2-carboxamide]
2,AKT1,O=C(c1cccs1)N(CCCN1CCOCC1)c1nc(-c2ccccn2)cs1 [N-(3-morpholinopropyl)-N-(4-(pyridin-2-yl)thiazol-2-yl)thiophene-2-carboxamide]
3,AKT1,O=C(c1cccs1)N(CCCN1CCOCC1)c1nc(-c2cccs2)cs1 [N-(3-morpholinopropyl)-N-(4-(thiophen-2-yl)thiazol-2-yl)thiophene-2-carboxamide]
4,AKT1,O=C(c1cccs1)N(CCCN1CCOCC1)c1nc(C(F)(F)F)cs1 [N-(3-morpholinopropyl)-N-(4-(trifluoromethyl)thiazol-2-yl)thiophene-2-carboxamide]
5,AKT1,Cc1ccc(-c2csc(N(CCCN3CCOCC3)C(=O)c3cccs3)n2)cc1 [N-(3-morpholinopropyl)-N-(4-p-tolylthiazol-2-yl)thiophene-2-carboxamide]
6,AKT1,O=C(c1ccccc1)N(CCCN1CCOCC1)c1nc(-c2ccccc2)cs1 [N-(3-morpholinopropyl)-N-(4-phenylthiazol-2-yl)benzamide]
7,AKT1,O=C(c1ccco1)N(CCCN1CCOCC1)c1nc(-c2ccccc2)cs1 [N-(3-morpholinopropyl)-N-(4-phenylthiazol-2-yl)furan-2-carboxamide]
8,AKT1,O=C(c1cccs1)N(CCCN1CCOCC1)c1nc(-c2ccccc2)cs1 [N-(3-morpholinopropyl)-N-(4-phenylthiazol-2-yl)thiophene-2-carboxamide]
9,AKT1,O=C(c1cccs1)N(CCCN1CCOCC1)c1nc(-c2cc3ccccc3[nH]2)cs1 [N-(4-(1H-indol-2-yl)thiazol-2-yl)-N-(3-morpholinopropyl)thiophene-2-carboxamide]
10,AKT1,"O=C(c1cccs1)N(CCCN1CCOCC1)c1nc(-c2ccc3c(c2)OCCO3)cs1 [N-(4-(2,3-dihydrobenzo[b][1,4]dioxin-6-yl)thiazol-2-yl)-N-(3-morpholinopropyl)thiophene-2-carboxamide]"
11,AKT1,"O=C(c1cccs1)N(CCCN1CCOCC1)c1nc(-c2ccc(Cl)cc2Cl)cs1 [N-(4-(2,4-dichlorophenyl)thiazol-2-yl)-N-(3-morpholinopropyl)thiophene-2-carboxamide]"
12,AKT1,"COc1ccc(-c2csc(N(CCCN3CCOCC3)C(=O)c3cccs3)n2)c(OC)c1 [N-(4-(2,4-dimethoxyphenyl)thiazol-2-yl)-N-(3-morpholinopropyl)thiophene-2-carboxamide]"
13,AKT1,"Cc1ccc(-c2csc(N(CCCN3CCOCC3)C(=O)c3cccs3)n2)c(C)c1 [N-(4-(2,4-dimethylphenyl)thiazol-2-yl)-N-(3-morpholinopropyl)thiophene-2-carboxamide]"
14,AKT1,"COc1ccc(OC)c(-c2csc(N(CCCN3CCN(C)CC3)C(=O)c3ccccc3)n2)c1 [N-(4-(2,5-dimethoxyphenyl)thiazol-2-yl)-N-(3-(4-methylpiperazin-1-yl)propyl)benzamide]"
15,AKT1,"COc1ccc(OC)c(-c2csc(N(CCCN3CCN(C)CC3)C(=O)c3cccs3)n2)c1 [N-(4-(2,5-dimethoxyphenyl)thiazol-2-yl)-N-(3-(4-methylpiperazin-1-yl)propyl)thiophene-2-carboxamide]"
16,AKT1,"COc1ccc(OC)c(-c2csc(N(CCCN3CCCCC3)C(=O)c3ccccc3)n2)c1 [N-(4-(2,5-dimethoxyphenyl)thiazol-2-yl)-N-(3-(piperidin-1-yl)propyl)benzamide]"
17,AKT1,"COc1ccc(OC)c(-c2csc(N(CCCN3CCCCC3)C(=O)c3ccco3)n2)c1 [N-(4-(2,5-dimethoxyphenyl)thiazol-2-yl)-N-(3-(piperidin-1-yl)propyl)furan-2-carboxamide]"
18,AKT1,"COc1ccc(OC)c(-c2csc(N(CCCN3CCCCC3)C(=O)c3cccs3)n2)c1 [N-(4-(2,5-dimethoxyphenyl)thiazol-2-yl)-N-(3-(piperidin-1-yl)propyl)thiophene-2-carboxamide]"
